Reference: the NIST ThermoML archive (doi:10.1007/s10765-011-0995-x)

How the values were obtained:
[1] = xn = mol fraction of the nth substance listed; settings: 101 kPa, Liquid; for speed of sound: Pulse-echo method
[2] = refractive index (Na D-line) (dimensionless); xn = mol fraction of the nth substance listed; settings: 101 kPa, Liquid, Standard Abbe refractometry

Cc1ccccc1Cl [2-chlorotoluene] + CCCCCCCCCCO
Settings	mass density, [1] [kg/m3]	refractive index, [2]	speed of sound, [1] [m/s]	viscosity, [1] [mPa·s]
298.15 K, x1 = 0.0734	838.4	1.4377	1373.9	10
298.15 K, x1 = 0.1537	852.15	1.4413	1366.5	8.277
298.15 K, x1 = 0.2064	861.61	1.444	1361.3	7.283
298.15 K, x1 = 0.2747	874.4	1.4479	1354.2	6.13
298.15 K, x1 = 0.345	888.32	1.4524	1346.6	5.101
298.15 K, x1 = 0.4107	902.06	1.4569	1339.4	4.289
298.15 K, x1 = 0.489	919.52	1.4628	1330.9	3.477
298.15 K, x1 = 0.5555	935.39	1.4685	1323.8	2.906
298.15 K, x1 = 0.6158	950.72	1.4741	1317.6	2.468
298.15 K, x1 = 0.6813	968.52	1.4806	1311.5	2.075
298.15 K, x1 = 0.7475	987.82	1.4878	1306	1.742
298.15 K, x1 = 0.8205	1010.87	1.4966	1301.2	1.446
298.15 K, x1 = 0.884	1032.61	1.505	1298.7	1.235
298.15 K, x1 = 0.9469	1056.04	1.514	1298.5	1.062
298.15 K, x1 = 1	1077.41	1.5219	1301.2	0.943
303.15 K, x1 = 0.0734	834.73	1.4359	1358.4	8.289
303.15 K, x1 = 0.1537	848.3	1.4394	1350.5	6.862
303.15 K, x1 = 0.2064	857.65	1.4423	1344.9	6.042
303.15 K, x1 = 0.2747	870.31	1.4462	1337.3	5.103
303.15 K, x1 = 0.345	884.08	1.4505	1329.3	4.266
303.15 K, x1 = 0.4107	897.72	1.4549	1321.7	3.603
303.15 K, x1 = 0.489	915.05	1.4608	1312.7	2.952
303.15 K, x1 = 0.5555	930.83	1.4664	1305.2	2.486
303.15 K, x1 = 0.6158	946.09	1.4719	1298.8	2.133
303.15 K, x1 = 0.6813	963.84	1.4784	1292.5	1.806
303.15 K, x1 = 0.7475	983.1	1.4855	1286.9	1.538
303.15 K, x1 = 0.8205	1006.13	1.4941	1282.3	1.294
303.15 K, x1 = 0.884	1027.9	1.5023	1280	1.124
303.15 K, x1 = 0.9469	1051.38	1.5111	1280.6	0.984
303.15 K, x1 = 1	1072.83	1.5189	1284.1	0.885
308.15 K, x1 = 0.0734	831.1	1.4339	1339.3	6.889
308.15 K, x1 = 0.1537	844.55	1.4378	1330.9	5.734
308.15 K, x1 = 0.2064	853.84	1.4406	1324.9	5.078
308.15 K, x1 = 0.2747	866.4	1.4445	1316.8	4.313
308.15 K, x1 = 0.345	880.08	1.4489	1308.2	3.637
308.15 K, x1 = 0.4107	893.62	1.4534	1300	3.08
308.15 K, x1 = 0.489	910.82	1.4592	1290.6	2.528
308.15 K, x1 = 0.5555	926.51	1.4648	1283.1	2.134
308.15 K, x1 = 0.6158	941.68	1.4702	1276.7	1.837
308.15 K, x1 = 0.6813	959.32	1.4767	1270.8	1.566
308.15 K, x1 = 0.7475	978.5	1.4839	1266.1	1.338
308.15 K, x1 = 0.8205	1001.49	1.4924	1262.5	1.135
308.15 K, x1 = 0.884	1023.23	1.5005	1261.6	0.995
308.15 K, x1 = 0.9469	1046.71	1.5092	1262.2	0.879
308.15 K, x1 = 1	1068.24	1.5169	1266.1	0.805
